What was measured:
[1] = tested on: human embryonic stem cell derived neural stem cells (NSCs); assay: Neural Stem Cell Proliferation Assay (neurogenesis assay, ATP levels by CellTiterGlo); assay type: cell-based; conditions: 96 h, compound concentration at which 150% activity of control (100%) is reached, NSC proliferation by ATP level after 4 days incubation, dose response 8 μM to 8 nM
Procedure, shortened: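 Read-out is CellTiterGlo ATP luminescence after 4-day culture (37 °C, 5% CO2) of dual-SMAD-derived human ESC NSCs, dosed 4 h post-seeding at 8 μM to 8 nM (11 points, 2-fold). EC150 marks the concentration reaching 150% of the media-only control (0.25% DMSO).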

Question: For `Cc1c2n(c3c(-c4ccc(F)cc4F)cc(C#N)cc13)CCNC2=O` [Example 179, 6-(2,4-Difluoro-phenyl)-10-methyl-1-oxo-1,2,3,4-tetrahydro-pyrazino[1,2-a]indole-8-carbonitrile], which EC (150% of control) [1] is on record?
Answer: Its EC (150% of control) is 0.013 µM.

Question: What about the melting point of the same molecule?
Answer: The melting point was 237 °C.

Question: What does the source list for `N#Cc1cc(-c2ccc(OC(F)(F)F)cc2)c2c(c1)cc1n2CCNC1=O` [Example 190, 1-Oxo-6-[4-(trifluoromethoxy)phenyl]-3,4-dihydro-2H-pyrazino[1,2-a]indole-8-carbonitrile]?
Answer: EC (150% of control) [1]: 0.037 µM; melting point: 311.5 °C

Question: Which EC (150% of control) [1] does the source give for `Cc1c2n(c3c(-c4cccc(Cl)c4)cc(F)cc13)CCNC2=O` [Example 128, 6-(3-Chloro-phenyl)-8-fluoro-10-methyl-3,4-dihydro-2H-pyrazino[1,2-a]indol-1-one] here?
Answer: The EC (150% of control) was 0.22 µM.

Question: What about the melting point of the same molecule?
Answer: The melting point was 182 °C.

Question: Which results are given for `N#Cc1cc(-c2ccc(Cl)cc2F)c2c(c1)cc1n2CCNC1=O` [Example 174, 6-(4-Chloro-2-fluoro-phenyl)-1-oxo-1,2,3,4-tetrahydro-pyrazino[1,2-a]indole-8-carbonitrile]?
Answer: EC (150% of control) [1]: 0.019 µM; melting point: 278 °C

Question: Which EC (150% of control) [1] does the source give for `N#Cc1cc(-c2ccc(OC(F)(F)F)cc2)c2c(c1)cc1n2CCCNC1=O` [Example 255, 1-Oxo-7-[4-(trifluoromethoxy)phenyl]-2,3,4,5-tetrahydro-[1,4]diazepino[1,2-a]indole-9-carbonitrile] here?
Answer: The EC (150% of control) was 0.3 µM.

Question: And the melting point?
Answer: Its melting point is 230.5 °C.

Question: What does the source list for `CC1CCNC(=O)c2cc3cc(F)cc(-c4ccc(F)cc4)c3n21` (racemic) [Example 27, (RS)-9-Fluoro-7-(4-fluoro-phenyl)-5-methyl-2,3,4,5-tetrahydro-[1,4]diazepino[1,2-a]indol-1-one]?
Answer: EC (150% of control) [1]: 0.18 µM; melting point: 235.5 °C

Question: Which EC (150% of control) [1] does the source give for `Cc1c2n(c3c(-c4ccc(F)nc4)cc(C#N)cc13)CCNC2=O` [Example 169, 6-(6-Fluoro-pyridin-3-yl)-10-methyl-1-oxo-1,2,3,4-tetrahydro-pyrazino[1,2-a]indole-8-carbonitrile] here?
Answer: Its EC (150% of control) is 0.066 µM.

Question: And the melting point?
Answer: The melting point was 272 °C.

Question: What does the source list for `Cc1ccc(-c2cc(C#N)cc3c(C)c4n(c23)CCCNC4=O)cc1F` [Example 291, 7-(3-Fluoro-4-methylphenyl)-11-methyl-1-oxo-2,3,4,5-tetrahydro-[1,4]diazepino[1,2-a]indole-9-carbonitrile]?
Answer: EC (150% of control) [1]: 0.16 µM; melting point: 265 °C

Question: Which EC (150% of control) [1] does the source give for `O=C1NCCCn2c1cc1cc(Cl)cc(-c3ccc(Cl)cc3)c12` [Example 53, 9-Chloro-7-(4-chloro-phenyl)-2,3,4,5-tetrahydro-[1,4]diazepino[1,2-a]indol-1-one] here?
Answer: The EC (150% of control) was 0.15 µM.

Question: What about the melting point of the same molecule?
Answer: Its melting point is 237 °C.

Question: Which EC (150% of control) [1] does the source give for `CS(=O)(=O)c1ccc(-c2cc(C#N)cc3cc4n(c23)CCCNC4=O)cc1` [Example 256, 7-(4-Methylsulfonylphenyl)-1-oxo-2,3,4,5-tetrahydro-[1,4]diazepino[1,2-a]indole-9-carbonitrile] here?
Answer: The EC (150% of control) was 1.42 µM.

Question: And the melting point?
Answer: The melting point was 305.5 °C.

Question: With `Cc1cc(-c2cc(F)cc3c(C)c4n(c23)CCNC4=O)ccc1F` [Example 148, 8-Fluoro-6-(4-fluoro-3-methyl-phenyl)-10-methyl-3,4-dihydro-2H-pyrazino[1,2-a]indol-1-one] as the molecule, how does the EC (150% of control) [1] read?
Answer: Its EC (150% of control) is 0.078 µM.

Question: And the melting point?
Answer: The melting point was 236 °C.

Question: Which EC (150% of control) [1] does the source give for `C[C@@H]1CNC(=O)c2cc3cc(F)cc(-c4cccc(F)c4)c3n21` [Example 14, (R)-8-Fluoro-6-(3-fluoro-phenyl)-4-methyl-3,4-dihydro-2H-pyrazino[1,2-a]indol-1-one] here?
Answer: Its EC (150% of control) is 0.34 µM.

Question: And the melting point?
Answer: The melting point was 232 °C.

Question: Which EC (150% of control) [1] does the source give for `N#Cc1cc(-c2cccc(C(F)(F)F)c2)c2c(c1)cc1n2CCNC1=O` [Example 195, 1-Oxo-6-[3-(trifluoromethyl)phenyl]-3,4-dihydro-2H-pyrazino[1,2-a]indole-8-carbonitrile] here?
Answer: The EC (150% of control) was 1.4 µM.

Question: What about the melting point of the same molecule?
Answer: Its melting point is 279.5 °C.

Question: With `Cc1c2n(c3c(-c4ccco4)cc(F)cc13)CCNC2=O` [Example 188, 8-Fluoro-6-(furan-2-yl)-10-methyl-3,4-dihydro-2H-pyrazino[1,2-a]indol-1-one] as the molecule, how does the EC (150% of control) [1] read?
Answer: Its EC (150% of control) is 0.1 µM.

Question: And the melting point?
Answer: The melting point was 236 °C.

Question: What does the source list for `Cc1c2n(c3c(-c4ccc(C#N)cc4)cc(F)cc13)CCNC2=O` [Example 124, 4-(8-Fluoro-10-methyl-1-oxo-1,2,3,4-tetrahydro-pyrazino[1,2-a]indol-6-yl)-benzonitrile]?
Answer: EC (150% of control) [1]: 0.023 µM; melting point: 295 °C

Question: For `Cc1ccc(-c2cc(C#N)cc3c(C)c4n(c23)CCNC4=O)cc1` [Example 258, 10-Methyl-6-(4-methylphenyl)-1-oxo-3,4-dihydro-2H-pyrazino[1,2-a]indole-8-carbonitrile], which EC (150% of control) [1] is on record?
Answer: The EC (150% of control) was 0.035 µM.

Question: What about the melting point of the same molecule?
Answer: Its melting point is 277 °C.

Question: With `Cc1ccc(-c2cc(F)cc3cc4n(c23)CCCNC4=O)cc1` [Example 30, 9-Fluoro-7-p-tolyl-2,3,4,5-tetrahydro-[1,4]diazepino[1,2-a]indol-1-one] as the molecule, how does the EC (150% of control) [1] read?
Answer: The EC (150% of control) was 0.036 µM.

Question: What about the melting point of the same molecule?
Answer: The melting point was 258.5 °C.

Question: For `O=C1NCCCn2c1cc1cc(Cl)cc(-c3ccc(F)c(F)c3)c12` [Example 46, 9-Chloro-7-(3,4-difluoro-phenyl)-2,3,4,5-tetrahydro-[1,4]diazepino[1,2-a]indol-1-one], which EC (150% of control) [1] is on record?
Answer: Its EC (150% of control) is 0.69 µM.

Question: And the melting point?
Answer: The melting point was 230.5 °C.

Question: Which EC (150% of control) [1] does the source give for `COc1ccc(-c2cc(F)cc3cc4n(c23)[C@H](C)CNC4=O)cc1` [Example 5, (R)-8-Fluoro-6-(4-methoxy-phenyl)-4-methyl-3,4-dihydro-2H-pyrazino[1,2-a]indol-1-one] here?
Answer: The EC (150% of control) was 0.034 µM.

Question: And the melting point?
Answer: The melting point was 228.5 °C.

Question: For `Cc1ccc(-c2cc(F)cc3c(C)c4n(c23)CCNC4=O)cc1F` [Example 147, 8-Fluoro-6-(3-fluoro-4-methyl-phenyl)-10-methyl-3,4-dihydro-2H-pyrazino[1,2-a]indol-1-one], which EC (150% of control) [1] is on record?
Answer: The EC (150% of control) was 0.039 µM.

Question: And the melting point?
Answer: The melting point was 206 °C.

Question: With `N#Cc1cc(-c2ccc(Cl)nc2)c2c(c1)cc1n2CCNC1=O` [Example 226, 6-(6-Chloropyridin-3-yl)-1-oxo-3,4-dihydro-2H-pyrazino[1,2-a]indole-8-carbonitrile] as the molecule, how does the EC (150% of control) [1] read?
Answer: The EC (150% of control) was 2.2 µM.

Question: And the melting point?
Answer: Its melting point is 300.5 °C.

Question: For `Cc1c2n(c3c(-c4ccnc(Cl)c4)cc(Cl)cc13)CCNC2=O` [Example 119, 8-Chloro-6-(2-chloro-pyridin-4-yl)-10-methyl-3,4-dihydro-2H-pyrazino[1,2-a]indol-1-one], which EC (150% of control) [1] is on record?
Answer: Its EC (150% of control) is 0.16 µM.

Question: And the melting point?
Answer: Its melting point is 270 °C.

Question: Which EC (150% of control) [1] does the source give for `Cc1c2n(c3c(-c4cc(F)cc(F)c4)cc(C#N)cc13)CCNC2=O` [Example 261, 6-(3,5-Difluorophenyl)-10-methyl-1-oxo-3,4-dihydro-2H-pyrazino[1,2-a]indole-8-carbonitrile] here?
Answer: The EC (150% of control) was 0.091 µM.

Question: What about the melting point of the same molecule?
Answer: The melting point was 303 °C.

Question: With `Cc1cc(-c2ccc(Cl)cc2)c2c(c1)cc1n2CCCNC1=O` [Example 58, 7-(4-Chloro-phenyl)-9-methyl-2,3,4,5-tetrahydro-[1,4]diazepino[1,2-a]indol-1-one] as the molecule, how does the EC (150% of control) [1] read?
Answer: The EC (150% of control) was 1.51 µM.

Question: What about the melting point of the same molecule?
Answer: Its melting point is 258.5 °C.

Question: With `Cc1c2n(c3c(-c4ccc(C(C)C)cc4)cc(Cl)cc13)CCNC2=O` [Example 106, 8-Chloro-6-(4-isopropyl-phenyl)-10-methyl-3,4-dihydro-2H-pyrazino[1,2-a]indol-1-one] as the molecule, how does the EC (150% of control) [1] read?
Answer: The EC (150% of control) was 0.05 µM.

Question: And the melting point?
Answer: The melting point was 194.5 °C.

Question: Which EC (150% of control) [1] does the source give for `N#Cc1cc(-c2ccc(F)cc2F)c2c(c1)cc1n2CCNC1=O` [Example 173, 6-(2,4-Difluoro-phenyl)-1-oxo-1,2,3,4-tetrahydro-pyrazino[1,2-a]indole-8-carbonitrile] here?
Answer: Its EC (150% of control) is 0.01 µM.

Question: And the melting point?
Answer: The melting point was 292 °C.

Question: With `Cc1c2n(c3c(-c4ccc(OC(F)(F)F)cc4)cc(C#N)cc13)CCNC2=O` [Example 170, 10-Methyl-1-oxo-6-(4-trifluoromethoxy-phenyl)-1,2,3,4-tetrahydro-pyrazino[1,2-a]indole-8-carbonitrile] as the molecule, how does the EC (150% of control) [1] read?
Answer: Its EC (150% of control) is 0.014 µM.

Question: And the melting point?
Answer: Its melting point is 239 °C.

Question: What does the source list for `Cc1cc(-c2ccc(F)c(F)c2)c2c(c1)cc1n2CCCNC1=O` [Example 55, 7-(3,4-Difluoro-phenyl)-9-methyl-2,3,4,5-tetrahydro-[1,4]diazepino[1,2-a]indol-1-one]?
Answer: EC (150% of control) [1]: 2.8 µM; melting point: 231 °C

Question: For `COc1ncc(-c2cc(Cl)cc3c(C)c4n(c23)CCNC4=O)cn1` [Example 142, 8-Chloro-6-(2-methoxy-pyrimidin-5-yl)-10-methyl-3,4-dihydro-2H-pyrazino[1,2-a]indol-1-one], which EC (150% of control) [1] is on record?
Answer: The EC (150% of control) was 0.039 µM.

Question: And the melting point?
Answer: Its melting point is 270.5 °C.

Question: With `Cc1c2n(c3c(-c4ccc(C#N)cc4)cc(Cl)cc13)CCNC2=O` [Example 104, 4-(8-Chloro-10-methyl-1-oxo-1,2,3,4-tetrahydro-pyrazino[1,2-a]indol-6-yl)-benzonitrile] as the molecule, how does the EC (150% of control) [1] read?
Answer: The EC (150% of control) was 0.015 µM.

Question: What about the melting point of the same molecule?
Answer: Its melting point is 290 °C.

Question: With `Cc1c2n(c3c(-c4ccc(C#N)cc4)cc(C#N)cc13)CCNC2=O` [Example 166, 6-(4-Cyano-phenyl)-10-methyl-1-oxo-1,2,3,4-tetrahydro-pyrazino[1,2-a]indole-8-carbonitrile] as the molecule, how does the EC (150% of control) [1] read?
Answer: The EC (150% of control) was 0.028 µM.

Question: And the melting point?
Answer: Its melting point is 323 °C.

Question: For `Cc1ccc(-c2cc(Cl)cc3c(C)c4n(c23)CCNC4=O)cc1` [Example 89, 8-Chloro-10-methyl-6-p-tolyl-3,4-dihydro-2H-pyrazino[1,2-a]indol-1-one], which EC (150% of control) [1] is on record?
Answer: Its EC (150% of control) is 0.01 µM.

Question: What about the melting point of the same molecule?
Answer: Its melting point is 251.5 °C.

Question: What does the source list for `Cc1c2n(c3c(-c4ccc(Cl)c(C(F)(F)F)c4)cc(C#N)cc13)CCNC2=O` [Example 295, 6-[4-Chloro-3-(trifluoromethyl)phenyl]-10-methyl-1-oxo-3,4-dihydro-2H-pyrazino[1,2-a]indole-8-carbonitrile]?
Answer: EC (150% of control) [1]: 0.3 µM; melting point: 278 °C

Question: For `Cc1c2n(c3c(-c4cccc(F)c4)cc(Cl)cc13)CCNC2=O` [Example 96, 8-Chloro-6-(3-fluoro-phenyl)-10-methyl-3,4-dihydro-2H-pyrazino[1,2-a]indol-1-one], which EC (150% of control) [1] is on record?
Answer: Its EC (150% of control) is 0.15 µM.

Question: What about the melting point of the same molecule?
Answer: Its melting point is 239 °C.

Source: patent publication US9284321B2, “Piperazino[1,2-a]indol-1-ones and [1,4]diazepino[1,2-a]indol-1-one” (Hoffmann-La Roche Inc., priority 2012, dated 2016)
